In ChEMBL document CHEMBL6153134, “Anti-inflammatory and Hepatoprotective Iridoid Glycosides from the Roots of Gomphandra mollis” (J Nat Prod, 2025):

How the values were obtained:
Assay type in all cases: functional
HepG2 [1] = assay: Hepatoprotective activity against APAP-induced cytotoxicity in human HepG2 cells assessed as cell viability at 40 uM pretreated for 8 hrs followed by APAP addition for 36 hrs by MTT assay (reference value: 68.1%); conditions: time 44 hrs, read-out: Activity
HepG2 [2] = assay: Hepatoprotective activity against APAP-induced cytotoxicity in human HepG2 cells assessed as cell viability at 40 to 80 uM pretreated for 8 hrs followed by APAP addition for 36 hrs by MTT assay (reference value: 68.1%); conditions: dose 40-80 µM, time 44 hrs
HepG2 [3] = assay: Hepatoprotective activity against APAP-induced cytotoxicity in human HepG2 cells assessed as cell viability at 50 ug/mL pretreated for 8 hrs followed by APAP addition for 36 hrs by MTT assay (reference value: 68.1%); conditions: time 44 hrs, read-out: Activity

Row | Structure (SMILES) | viability at 40 µM (HepG2 [1]) [%] | Activity (HepG2 [2]) [%] | further results
1 | C=CC1C(CC(OC)OC)C(C(=O)O[C@H]2CC3C(C(=O)OC)=CO[C@@H](O[C@@H]4O[C@H](CO)[C@@H](O)[C@H](O)[C@H]4O)C3[C@H]2C)=CO[C@H]1O[C@@H]1O[C@H](CO)[C@@H](O)[C@H](O)[C@H]1O (stereo partly specified) | 75.6 | – | –
2 | C=C[C@H]1[C@H](O[C@@H]2O[C@H](CO)[C@@H](O)[C@H](O)[C@H]2O)OC=C(C(=O)O[C@H]2C[C@@H]3C(C(=O)OC)=CO[C@@H](O[C@@H]4O[C@H](CO)[C@@H](O)[C@H](O)[C@H]4O)[C@@H]3[C@H]2C)[C@H]1C[C@@H]1O[C@@H]2[C@@H](O)[C@@H](OC[C@H]3O[C@@](CO)(O[C@H]4O[C@H](CO)[C@@H](O)[C@H](O)[C@H]4O)[C@@H](O)[C@@H]3O)O[C@H](CO)[C@@H]2O1 | – | 75.6 | –
3 | C=C[C@H]1[C@H](O[C@@H]2O[C@H](CO)[C@@H](O)[C@H](O)[C@H]2O)OC=C(C(=O)O[C@H]2C[C@@H]3CCOC(=O)[C@@H]3[C@H]2C)[C@H]1C[C@@H](O)O[C@@H](O)C[C@@H]1C(C(=O)O[C@H]2C[C@@H]3CCOC(=O)[C@@H]3[C@H]2C)=CO[C@@H](O[C@@H]2O[C@H](CO)[C@@H](O)[C@H](O)[C@H]2O)[C@@H]1C=C | 75.6 | – | –
4 | C=C[C@H]1[C@H](O[C@@H]2O[C@H](CO)[C@@H](O)[C@H](O)[C@H]2O)OC=C(C(=O)O[C@H]2C[C@@H]3C(C(=O)OC)=CO[C@@H](O[C@@H]4O[C@H](CO)[C@@H](O)[C@H](O)[C@H]4O)[C@@H]3[C@H]2C)[C@H]1CC=O | – | 75.6 | –
5 | COc1cc([C@H]2Oc3cc([C@H]4Oc5cc(O)cc(O)c5C(=O)[C@@H]4O)ccc3O[C@@H]2CO)ccc1O [SILYBIN A] | – | – | viability at 50 µg/mL (HepG2 [3]): 90.9%
6 | C=C[C@H]1[C@H](O[C@@H]2O[C@H](CO)[C@@H](O)[C@H](O)[C@H]2O)OC=C2C(=O)OCC[C@H]21 [SWEROSIDE] | – | 75.6 | –
